# Source: patent US10106627B2, “Process for the preparation of polymeric biosurfactants” (priority 2014, dated 2018)
# *1 amine or outer side, *2 acyl side, *3 side chain or, on linkers, in order; H or OH if unused. Where a SMILES comes first, the peptide text is derived from it. Bridges are numbered along the chain shown (N, C = ends). [ ]: non-standard residue; d: D form. X1 = CC(C)CCCCCCCCC[C@H](CC(=O)[*:1])O[*:2]
# Key:
# erythrocytes = assay: Erythrocyte hemolysis assay (H2O2); assay type: cell-based; conditions: Erythrocyte, 0.5 h; human erythrocytes, H2O2, 37° C., 30 min; read-out: EC50 erythrocyte hemolysis inhibition
# Protocol: (§1) The antioxidant activity of Microsan from Microbacterium sp. strain BS-2 and Brevisan from Brevibacillus sp. strain BS-207 in cell free system was measured by its inhibitory activity on the generation of DPPH free radicals, superoxide anions (O^2−), lipid peroxidation and erythrocyte hemolysis. The DPPH free radical scavenging assay was performed using 2,2-diphenyl-1-picrylhydrazyl (DPPH) free radical scavenging method [Ara. N. and Hasan, N. (2009) Res. J. Med. Medical Sci. 4, 107-110]. Different concentrations of Microsan and Brevisan were mixed individually with 150 μl of 160 μM methanolic solution of DPPH and incubated at 35° C. for 30 min in dark. The effective concentration (EC50) was calculated by measuring the absorbance of the samples at 517 nm. The superoxide anion scavenging was measured using phenazine methosulfate-nicotinamide adenine dinucleotide (PMS/NADH) method as previously described [Liu, F., Ooi, V. E. and Chang, S. T. (1997) Life Sci. 60, 763-771]. The lipid peroxidation assay was performed using the previously described method [Zhang, Q., Yu, P., Li, Z., Zhang, H., Xu, Z. and Li, P. (2003) J. Appl. Phycol. 15, 305-310] which is based on measuring the lipid peroxide decomposed product malondialdehyde (MDA). […] Samples were incubated at 37° C. for 30 min and the absorbance was measured at 540 nm. […]
# [1] = Lipid peroxidation assay (malondialdehyde); assay type: biochemical; conditions: cell free
# Protocol: as §1
# [2] = DPPH free radical scavenging assay (cell free); assay type: biochemical; conditions: 35° C., 30 min
# Protocol: as §1
# [3] = Superoxide anion scavenging (PMS/NADH method); assay type: biochemical; conditions: cell free
# Protocol: as §1
# [4] = system: Escherichia coli MTCC 739; assay: Microtiter broth dilution MIC; assay type: cell-based; conditions: Escherichia coli MTCC 739, 24 h, 35° C.
# Protocol: (§2) The antimicrobial activity of Microsan and M-EPS-Au-NP was determined using the microtiter broth dilution method [Kumar, C. G. and Mamidyala, S. K. (2011) Coll. Surf B: Biointerf. 84, 462-466]. Different bacterial pathogens (10^7 cfu ml^−1 cells) were inoculated in 100 μl of Muller-Hinton broth. Different concentrations of Microsan, M-EPS-Au-NP and Brevisan were added to each strain and incubated for 24 h at 35° C. After incubation, 40 μl of p-iodonitrotetrazolium (INT, Sigma) dye (0.02%, 20 mg INT dissolved in 100 ml of 40% dimethyl formamide was added to each well and incubated for 2 h. The reduction of p-iodonitrotetrazolium was spectroscopically measured at 450 nm using TRIAD multimode reader (Dynex Technologies, Inc., Chantilly, Va.) to determine the minimum inhibitory concentration (MIC) values. Commercially available surfactin (CAS 24730-31-2; Sigma-Aldrich) and laminarin (CAS No 9008-22-4; Sigma-Aldrich) used as positive controls were run in parallel for comparison. The MIC values of Microsan and M-EPS-Au-NP observed against the tested bacterial strains are shown in Table 3.
# [5] = system: Staphylococcus aureus MTCC 96; assay: Microtiter broth dilution MIC; assay type: cell-based; conditions: Staphylococcus aureus MTCC 96, 24 h, 35° C.
# Protocol: as §2
# [6] = system: Bacillus subtilis MTCC 121; assay: Microtiter broth dilution MIC; assay type: cell-based; conditions: Bacillus subtilis MTCC 121, 24 h, 35° C.
# Protocol: as §2
# [7] = system: Staphylococcus aureus MLS16 MTCC 2940; assay: Microtiter broth dilution MIC; assay type: cell-based; conditions: Staphylococcus aureus MLS16 MTCC 2940, 24 h, 35° C.
# Protocol: as §2
# [8] = system: Micrococcus luteus MTCC 2470; assay: Microtiter broth dilution MIC; assay type: cell-based; conditions: Micrococcus luteus MTCC 2470, 24 h, 35° C.
# Protocol: as §2
# [9] = system: Klebsiella planticola MTCC 530; assay: Microtiter broth dilution MIC; assay type: cell-based; conditions: Klebsiella planticola MTCC 530, 24 h, 35° C.
# Protocol: as §2
# [10] = system: Pseudomonas aeruginosa MTCC 2453; assay: Microtiter broth dilution MIC; assay type: cell-based; conditions: Pseudomonas aeruginosa MTCC 2453, 24 h, 35° C.
# Protocol: as §2
compound,measurement,setting,value
"O=C1O[C@H]([C@@H](O)CO)C(O)=C1O [ascorbic acid, reference compound]",EC50,erythrocytes,120 µg/mL
same,EC50 lipid peroxidation inhibition,[1],130.97 µg/mL
same,EC50 DPPH free radical scavenging,[2],40.28 µg/mL
same,EC50 superoxide anions (O^2−) scavenging,[3],21.1 µg/mL
Laminarin,Minimum inhibitory concentration (MIC),[4],18.75 µg/mL
same,Minimum inhibitory concentration (MIC),[5],18.75 µg/mL
same,Minimum inhibitory concentration (MIC),[6],9.37 µg/mL
same,Minimum inhibitory concentration (MIC),[7],37.5 µg/mL
same,Minimum inhibitory concentration (MIC),[8],4.68 µg/mL
same,Minimum inhibitory concentration (MIC),[9],4.68 µg/mL
same,Minimum inhibitory concentration (MIC),[10],4.68 µg/mL
CC(C)CCCCCCCCC[C@@H]1CC(=O)N[C@@H](CCC(=O)O)C(=O)N[C@@H](CC(C)C)C(=O)N[C@H](CC(C)C)C(=O)N[C@@H](C(C)C)C(=O)N[C@@H](CC(=O)O)C(=O)N[C@H](CC(C)C)C(=O)N[C@@H](CC(C)C)C(=O)O1 [Surfactin] (EL[dL]VD[dL]L; linker N-C via X1),MIC,"[4]; MTCC739, read-out: Minimum inhibitory concentration (MIC)",9.37 µg/mL
same,MIC,"[5]; MTCC96, read-out: Minimum inhibitory concentration (MIC)",9.37 µg/mL
same,MIC,"[6]; MTCC121, read-out: Minimum inhibitory concentration (MIC)",4.68 µg/mL
same,MIC,"[7]; MTCC2940, read-out: Minimum inhibitory concentration (MIC)",18.8 µg/mL
same,MIC,"[8]; MTCC2470, read-out: Minimum inhibitory concentration (MIC)",18.8 µg/mL
same,MIC,"[9]; MTCC530, read-out: Minimum inhibitory concentration (MIC)",9.37 µg/mL
same,MIC,"[10]; MTCC2453, read-out: Minimum inhibitory concentration (MIC)",18.8 µg/mL
